Test results from article PMC5655388, “Nicotinamide-based diamides derivatives as potential cytotoxic agents: synthesis and biological evaluation” (Chemistry Central Journal, 2017).
In brackets after ≈: the same amount, converted by molar mass.

How the values were obtained:
[1] = MTT in vitro cytotoxicity assay, MDCK normal cells; type: cell-based, canine; conditions: dog, MDCK normal kidney cells, mean ± SD
Description: (§1) All newly prepared nicotinamide-based diamides derivatives 4a–k and several similar diamides 4l–o were evaluated for their in vitro cytotoxic effects against NCI-H460 (Human large cell lung cancer cell line), A549 (Human lung cancer cell line), NCI-H1975 (Human lung cancer cell line), HL-7702 (Human normal liver cells), and MDCK (Madin-Darby canine kidney cells) cell lines by the modified MTT (3-(4,5-dimethylthiazol-2-yl)-2,5-diphenyl tetrazolium bromide) assay using 5-FU (5-Fluorouracil) as a positive control.
(§2) The in vitro cytotoxicity of the synthesized compounds against different human lung cancer cell lines (NCI-H460, A549, NCI-H1975) and normal cells (HL-7702 and MDCK) were measured with the 3-(4,5-dimethylthiazol-2-yl)-2,5-diphenyl tetrazolium bromide (MTT) assay. All the data of the experiment were analyzed with SPSS software, and the 50% inhibitory concentrations (IC50) of each compound for the different cell lines were determined. A control was run for each test, and all assays were performed in triplicate on three independent experiments, and measurement data were expressed as the mean ± SD.

[2] = MTT in vitro cytotoxicity assay, HL-7702 normal cells; type: cell-based; conditions: human, HL-7702 normal liver cells, mean ± SD
Description: as §1, §2

[3] = system: NCI-H1975 (Human lung cancer cell line); test: MTT in vitro cytotoxicity assay, NCI-H1975; type: cell-based; conditions: for IC50: Homo sapiens, NCI-H1975 cells, MTT assay, mean ± SD; for Cytotoxic (inhibitory) activity at single concentration, NCI-H1975: 40 µg/mL, preliminary screen (Fig. 4), result in words
Description: as §1, §2

[4] = system: A549 (Human lung cancer cell line); test: MTT in vitro cytotoxicity assay, A549; type: cell-based; conditions: for IC50: Homo sapiens, A549 cells, MTT assay, mean ± SD; for Cytotoxic (inhibitory) activity at single concentration, A549: 40 µg/mL, preliminary screen (Fig. 4), result in words
Description: as §1, §2

[5] = system: NCI-H460 (Human large cell lung cancer cell line); test: MTT in vitro cytotoxicity assay, NCI-H460; type: cell-based; conditions: for IC50: Homo sapiens, NCI-H460 cells, MTT assay, mean ± SD; for Cytotoxic (inhibitory) activity at single concentration, NCI-H460: 40 µg/mL, preliminary screen (Fig. 4), result in words
Description: as §1, §2

SMILES | IC50 [1] | IC50 [2] | IC50 [3] | IC50 [4] | IC50 [5] | Cytotoxic (inhibitory) activity at single concentration, NCI-H1975 [3] | Cytotoxic (inhibitory) activity at single concentration, A549 [4] | Cytotoxic (inhibitory) activity at single concentration, NCI-H460 [5]
NC(=O)c1cccnc1NC(=O)c1ccccc1Nc1cccc(C(F)(F)F)c1 [4a, 2-(2-((3-(Trifluoromethyl)phenyl)amino)benzamido)nicotinamide] | > 40 µg/mL | > 40 µg/mL | > 40 µg/mL | > 40 µg/mL | > 40 µg/mL |  |  | 
CNC(=O)c1cccnc1NC(=O)c1ccccc1Nc1cccc(C(F)(F)F)c1 [4b, N-Methyl-2-(2-((3-(trifluoromethyl)phenyl)amino)benzamido)nicotinamide] | > 40 µg/mL | > 40 µg/mL | > 40 µg/mL | > 40 µg/mL | 36.7 ± 2.8 µg/mL (≈ 88.5 µM) |  |  | 
CC(O)CNC(=O)c1cccnc1NC(=O)c1ccccc1Nc1cccc(C(F)(F)F)c1 (centres unmarked) [4c, N-(2-Hydroxypropyl)-2-(2-((3-(trifluoromethyl)phenyl)amino)benzamido)nicotinamide] | 17 ± 0.84 µg/mL (≈ 37 µM) | 19.7 ± 0.45 µg/mL (≈ 43 µM) | 27.2 ± 2.76 µg/mL (≈ 59.4 µM) | 26.3 ± 3.22 µg/mL (≈ 57.4 µM) | 20.6 ± 1.37 µg/mL (≈ 45 µM) | significant inhibitory activities | significant inhibitory activities | significant inhibitory activities
CC(=O)CNC(=O)c1cccnc1NC(=O)c1ccccc1Nc1cccc(C(F)(F)F)c1 [4d, N-(2-Oxopropyl)-2-(2-((3-(trifluoromethyl)phenyl)amino)benzamido)nicotinamide] | 13.4 ± 0.29 µg/mL (≈ 29.5 µM) | 26.9 ± 0.95 µg/mL (≈ 58.9 µM) | 12.8 ± 1.59 µg/mL (≈ 28.1 µM) | 13.1 ± 2.45 µg/mL (≈ 28.7 µM) | 4.07 ± 1.3 µg/mL (≈ 8.92 µM) | significant inhibitory activities | significant inhibitory activities | significant inhibitory activities
Cc1cc(Cl)cc(C(N)=O)c1NC(=O)c1cccnc1Nc1cccc(C(F)(F)F)c1 [4e, N-(2-Carbamoyl-4-chloro-6-methylphenyl)-2-((3-(trifluoromethyl)phenyl)amino)nicotinamide] | > 40 µg/mL | > 40 µg/mL | > 40 µg/mL | > 40 µg/mL | > 40 µg/mL |  | selective cytotoxicity | 
CNC(=O)c1cc(Cl)cc(C)c1NC(=O)c1cccnc1Nc1cccc(C(F)(F)F)c1 [4f, N-(4-Chloro-2-methyl-6-(methylcarbamoyl)phenyl)-2-((3-(trifluoromethyl)phenyl)amino)nicotinamide] | > 40 µg/mL | > 40 µg/mL | > 40 µg/mL | > 40 µg/mL | > 40 µg/mL |  |  | 
NC(=O)c1cccnc1NC(=O)c1cccnc1Nc1cccc(C(F)(F)F)c1 [4g, N-(3-Carbamoylpyridin-2-yl)-2-((3-(trifluoromethyl)phenyl)amino)nicotinamide] | 13 ± 1.27 µg/mL (≈ 32.5 µM) | 9.86 ± 0.34 µg/mL (≈ 24.6 µM) | 10.8 ± 2.22 µg/mL (≈ 27 µM) | 20.1 ± 0.48 µg/mL (≈ 50.1 µM) | 9.17 ± 2.02 µg/mL (≈ 22.8 µM) | significant inhibitory activities | significant inhibitory activities | significant inhibitory activities
CNC(=O)c1cccnc1NC(=O)c1cccnc1Nc1cccc(C(F)(F)F)c1 [4h, N-Methyl-2-(2-((3-(trifluoromethyl)phenyl)amino)nicotinamido)nicotinamide] | 11.1 ± 0.24 µg/mL (≈ 26.6 µM) | 11.6 ± 2.08 µg/mL (≈ 28 µM) | 12.4 ± 2.52 µg/mL (≈ 29.9 µM) | 17.2 ± 3.4 µg/mL (≈ 41.4 µM) | 9.31 ± 2.66 µg/mL (≈ 22.4 µM) | significant inhibitory activities | significant inhibitory activities | significant inhibitory activities
CC(O)CNC(=O)c1cccnc1NC(=O)c1cccnc1Nc1cccc(C(F)(F)F)c1 (centres unmarked) [4i, N-(2-Hydroxypropyl)-2-(2-((3-(trifluoromethyl)phenyl)amino)nicotinamido)nicotinamide] | 11.62 ± 0.06 µg/mL (≈ 25.3 µM) | 14.5 ± 2.19 µg/mL (≈ 31.6 µM) | 9.15 ± 1.64 µg/mL (≈ 19.9 µM) | 16.5 ± 3.53 µg/mL (≈ 36 µM) | 13.1 ± 4.49 µg/mL (≈ 28.5 µM) | significant inhibitory activities | significant inhibitory activities | significant inhibitory activities
NC(=O)c1cc2ccccc2cc1NC(=O)c1cccnc1Nc1cccc(C(F)(F)F)c1 [4j, N-(3-Carbamoylnaphthalen-2-yl)-2-((3-(trifluoromethyl)phenyl)amino)nicotinamide] | 14.3 ± 0.66 µg/mL (≈ 31.7 µM) | 18.1 ± 1.63 µg/mL (≈ 40.2 µM) | 25.2 ± 3.35 µg/mL (≈ 55.9 µM) | 24.8 ± 3 µg/mL (≈ 55 µM) | 38.4 ± 3.95 µg/mL (≈ 85.3 µM) |  |  | 
CNC(=O)c1cc2ccccc2cc1NC(=O)c1cccnc1Nc1cccc(C(F)(F)F)c1 [4k, N-(3-(Methylcarbamoyl)naphthalen-2-yl)-2-((3-(trifluoromethyl)phenyl)amino)nicotinamide] | > 40 µg/mL | > 40 µg/mL | > 40 µg/mL | 35.3 ± 2.19 µg/mL (≈ 76 µM) | > 40 µg/mL |  | selective cytotoxicity | 
Cc1cc(Cl)cc(C(N)=O)c1NC(=O)c1ccccc1Nc1cccc(C(F)(F)F)c1 [4l, 5-Chloro-3-methyl-2-(2-((3-(trifluoromethyl)phenyl)amino)benzamido)benzamide] | > 40 µg/mL | > 40 µg/mL | > 40 µg/mL | > 40 µg/mL | > 40 µg/mL |  | selective cytotoxicity | 
CNC(=O)c1cc(Cl)cc(C)c1NC(=O)c1ccccc1Nc1cccc(C(F)(F)F)c1 [4m, 5-Chloro-N,3-dimethyl-2-(2-((3-(trifluoromethyl)phenyl)amino)benzamido)benzamide] | 21.2 ± 3.59 µg/mL (≈ 46 µM) | 21.4 ± 1.79 µg/mL (≈ 46.4 µM) | 10.8 ± 1.02 µg/mL (≈ 23.4 µM) | 6.77 ± 0.86 µg/mL (≈ 14.7 µM) | 6.85 ± 0.23 µg/mL (≈ 14.8 µM) | good inhibition activities | good inhibition activities | good inhibition activities
NC(=O)c1cc2ccccc2cc1NC(=O)c1ccccc1Nc1cccc(C(F)(F)F)c1 [4n, 3-(2-((3-(Trifluoromethyl)phenyl)amino)benzamido)-2-naphthamide] | 14.44 ± 0.01 µg/mL (≈ 32.1 µM) | > 40 µg/mL | > 40 µg/mL | > 40 µg/mL | > 40 µg/mL |  |  | 
CNC(=O)c1cc2ccccc2cc1NC(=O)c1ccccc1Nc1cccc(C(F)(F)F)c1 [4o, N-Methyl-3-(2-((3-(trifluoromethyl)phenyl)amino)benzamido)-2-naphthamide] | > 40 µg/mL | > 40 µg/mL | > 40 µg/mL | > 40 µg/mL | > 40 µg/mL |  |  | 
O=c1[nH]cc(F)c(=O)[nH]1 [5-FU, 5-Fluorouracil, reference compound] | 8.65 ± 0.81 µg/mL (≈ 66.5 µM) | 11.3 ± 1.67 µg/mL (≈ 87.3 µM) | 24.8 ± 5.8 µg/mL (≈ 190 µM) | 37.5 ± 3.25 µg/mL (≈ 288 µM) | 8.02 ± 2.35 µg/mL (≈ 61.7 µM) |  |  | 
